ChEMBL document CHEMBL4385613, “Discovery of Conformational Control Inhibitors Switching off the Activated c-KIT and Targeting a Broad Range of Clinically Relevant c-KIT Mutants” (J Med Chem, 2019)
The source made the active and inactive calls. No cut-off for these calls is given here.

Tests used:
GISTT1 = experiment: Antiproliferative activity against human GISTT1 cells harboring heterozygous V560-Y578 deletion mutant assessed as reduction in cell viability by MTS assay; assay type: functional
A549 = experiment: Antiproliferative activity against human A549 assessed as reduction in cell viability after 72 hrs by MTS assay; assay type: functional; details: A549, 72 h
[1] = system: Mast/stem cell growth factor receptor Kit (Homo sapiens), P10721 [UNDEFINED MUTATION]; experiment: Inhibition of c-KIT V560-L576 deletion/V654A double mutant phosphorylation in human GIST430 cells assessed as decrease in phosphorylation of MAPK at 10 to 100 nM measured after 24 to 72 hrs by Western blot analysis; assay type: cell-based
Mast/stem cell growth factor receptor Kit (Homo sapiens), P10721 [UNDEFINED MUTATION], sequence (P10721 whole entry, looked up, stated change not applied, the tested form may be a part): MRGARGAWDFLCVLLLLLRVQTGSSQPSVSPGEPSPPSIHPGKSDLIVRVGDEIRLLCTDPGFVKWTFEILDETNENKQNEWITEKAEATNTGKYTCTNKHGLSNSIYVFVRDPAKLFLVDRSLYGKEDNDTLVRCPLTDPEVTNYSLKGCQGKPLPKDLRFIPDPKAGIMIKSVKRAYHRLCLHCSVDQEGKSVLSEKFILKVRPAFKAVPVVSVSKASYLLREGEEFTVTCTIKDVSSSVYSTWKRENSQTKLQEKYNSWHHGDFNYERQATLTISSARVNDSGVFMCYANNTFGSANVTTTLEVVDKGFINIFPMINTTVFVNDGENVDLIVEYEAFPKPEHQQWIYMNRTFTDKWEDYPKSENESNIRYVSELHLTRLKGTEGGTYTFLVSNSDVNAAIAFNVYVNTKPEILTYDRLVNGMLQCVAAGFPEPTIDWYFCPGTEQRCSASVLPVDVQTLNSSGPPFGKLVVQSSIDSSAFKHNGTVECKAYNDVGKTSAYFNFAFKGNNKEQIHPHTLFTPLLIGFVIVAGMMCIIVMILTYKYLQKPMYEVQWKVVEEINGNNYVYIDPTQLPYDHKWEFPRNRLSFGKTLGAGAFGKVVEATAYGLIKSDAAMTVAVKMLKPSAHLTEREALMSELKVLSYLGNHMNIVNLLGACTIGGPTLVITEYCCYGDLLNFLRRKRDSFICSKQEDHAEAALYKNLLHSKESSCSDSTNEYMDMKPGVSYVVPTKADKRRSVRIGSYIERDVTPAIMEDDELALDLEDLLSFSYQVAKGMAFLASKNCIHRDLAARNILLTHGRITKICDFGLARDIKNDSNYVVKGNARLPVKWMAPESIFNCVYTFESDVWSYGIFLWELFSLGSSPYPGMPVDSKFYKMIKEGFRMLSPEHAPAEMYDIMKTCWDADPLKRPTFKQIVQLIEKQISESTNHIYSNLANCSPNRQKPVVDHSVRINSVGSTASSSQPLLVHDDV

[2] = system: Mast/stem cell growth factor receptor Kit (Homo sapiens), P10721 [UNDEFINED MUTATION]; experiment: Inhibition of c-KIT V560-L576 deletion/V654A double mutant phosphorylation in human GIST430 cells assessed as decrease in phosphorylation of AKT at 10 to 100 nM measured after 24 to 72 hrs by Western blot analysis; assay type: cell-based
[3] = system: Mast/stem cell growth factor receptor Kit (Homo sapiens), P10721 [T670I]; experiment: Inhibition of human c-KIT ATP binding domain exon 14 T670I single mutant at 100 nM using poly (Glu,Tyr) 4:1 as substrate in presence of 33P-gamma-ATP by hotspot kinase assay relative to control
Mast/stem cell growth factor receptor Kit (Homo sapiens), P10721 [T670I], sequence (P10721 whole entry T670I, the tested form may be a part): as the sequence (P10721 whole entry, looked up, stated change not applied, the tested form may be a part) above, with T670I counted along it

[4] = system: Mast/stem cell growth factor receptor Kit (Homo sapiens), P10721 [V654A]; experiment: Inhibition of human c-KIT ATP binding domain exon 13 V654A single mutant at 100 nM using poly (Glu,Tyr) 4:1 as substrate in presence of 33P-gamma-ATP by hotspot kinase assay relative to control
Mast/stem cell growth factor receptor Kit (Homo sapiens), P10721 [V654A], sequence (P10721 whole entry V654A, the tested form may be a part): as the sequence (P10721 whole entry, looked up, stated change not applied, the tested form may be a part) above, with V654A counted along it

GIST430 = experiment: Antiproliferative activity against human GIST430 cells harboring c-KIT exon 11 primary in-frame V560-L576 deletion mutant and exon 13 heterozygous secondary missense V654A mutant assessed as reduction in cell viability by methylene blue staining based assay; assay type: functional
[5] = target: Mast/stem cell growth factor receptor Kit (Homo sapiens, UniProt P10721); experiment: Inhibition of ATP-activated recombinant human N-terminal 6x-His-tagged c-KIT (547 to 935 residues)/(694 to 753 residues deletion) expressed in baculovirus infected Sf9 insect cells assessed as decrease in poly (Glu,Tyr) 4:1 phosphorylation incubated for 30 mins followed by ATP addition and measured after 30 mins by Kinase Glo based luminescence assay
[6] = target: Mast/stem cell growth factor receptor Kit (Homo sapiens, UniProt P10721, V654A); experiment: Inhibition of human c-KIT ATP binding domain exon 13 V654A single mutant using poly (Glu,Tyr) 4:1 as substrate in presence of 33P-gamma-ATP by hotspot kinase assay
Mast/stem cell growth factor receptor Kit (Homo sapiens, UniProt P10721, V654A), sequence (P10721 26-976 V654A limits assumed): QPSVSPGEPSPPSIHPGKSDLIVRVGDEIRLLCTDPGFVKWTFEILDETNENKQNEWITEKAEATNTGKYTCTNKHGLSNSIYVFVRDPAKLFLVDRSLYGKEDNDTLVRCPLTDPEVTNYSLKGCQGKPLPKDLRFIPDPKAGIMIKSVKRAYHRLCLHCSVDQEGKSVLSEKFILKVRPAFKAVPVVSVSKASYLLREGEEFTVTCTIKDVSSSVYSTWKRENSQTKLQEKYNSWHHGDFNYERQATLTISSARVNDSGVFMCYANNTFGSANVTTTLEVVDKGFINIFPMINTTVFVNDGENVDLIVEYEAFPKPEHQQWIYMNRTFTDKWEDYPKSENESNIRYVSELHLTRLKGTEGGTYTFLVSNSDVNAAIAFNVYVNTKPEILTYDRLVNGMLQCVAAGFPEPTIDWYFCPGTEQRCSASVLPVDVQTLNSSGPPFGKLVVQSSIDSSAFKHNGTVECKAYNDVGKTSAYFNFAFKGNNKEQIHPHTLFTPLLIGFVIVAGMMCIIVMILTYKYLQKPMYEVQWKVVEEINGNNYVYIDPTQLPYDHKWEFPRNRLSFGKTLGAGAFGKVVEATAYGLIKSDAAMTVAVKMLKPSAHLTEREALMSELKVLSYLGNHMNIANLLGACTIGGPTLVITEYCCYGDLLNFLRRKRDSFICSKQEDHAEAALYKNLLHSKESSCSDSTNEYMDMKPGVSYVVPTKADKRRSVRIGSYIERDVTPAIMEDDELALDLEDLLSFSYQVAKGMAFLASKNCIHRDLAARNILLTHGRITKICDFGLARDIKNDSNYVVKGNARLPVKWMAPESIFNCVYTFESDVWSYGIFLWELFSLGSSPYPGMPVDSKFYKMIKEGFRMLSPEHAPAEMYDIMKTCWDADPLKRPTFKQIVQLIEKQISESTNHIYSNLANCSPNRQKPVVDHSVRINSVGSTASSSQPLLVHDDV

[7] = system: Mast/stem cell growth factor receptor Kit (Homo sapiens), P10721 [Y823D]; details: at 10 nM
Mast/stem cell growth factor receptor Kit (Homo sapiens), P10721 [Y823D], sequence (P10721 whole entry Y823D, the tested form may be a part): as the sequence (P10721 whole entry, looked up, stated change not applied, the tested form may be a part) above, with Y823D counted along it
Description: Inhibition of human c-KIT A loop exon 17 Y823D single mutant at 10 nM using poly (Glu,Tyr) 4:1 as substrate in presence of 33P-gamma-ATP by hotspot kinase assay relative to control

[8] = target: Mast/stem cell growth factor receptor Kit (Homo sapiens, UniProt P10721, K642E); experiment: Inhibition of human c-KIT ATP binding domain exon 13 K642E single mutant using poly (Glu,Tyr) 4:1 as substrate in presence of 33P-gamma-ATP by hotspot kinase assay
Mast/stem cell growth factor receptor Kit (Homo sapiens, UniProt P10721, K642E), sequence (P10721 26-976 K642E limits assumed): as the sequence (P10721 26-976 V654A limits assumed) above, with K617E, A629V counted along it

[9] = target: Mast/stem cell growth factor receptor Kit (Homo sapiens, UniProt P10721, D820Y); experiment: Inhibition of human c-KIT A loop exon 17 D820Y single mutant using poly (Glu,Tyr) 4:1 as substrate in presence of 33P-gamma-ATP by hotspot kinase assay
Mast/stem cell growth factor receptor Kit (Homo sapiens, UniProt P10721, D820Y), sequence (P10721 26-976 D820Y limits assumed): as the sequence (P10721 26-976 V654A limits assumed) above, with A629V, D795Y counted along it

[10] = target: Mast/stem cell growth factor receptor Kit (Homo sapiens, UniProt P10721, D820E); experiment: Inhibition of human c-KIT A loop exon 17 D820E single mutant using poly (Glu,Tyr) 4:1 as substrate in presence of 33P-gamma-ATP by hotspot kinase assay
Mast/stem cell growth factor receptor Kit (Homo sapiens, UniProt P10721, D820E), sequence (P10721 26-976 D820E limits assumed): as the sequence (P10721 26-976 V654A limits assumed) above, with A629V, D795E counted along it

[11] = system: Mast/stem cell growth factor receptor Kit (Homo sapiens), P10721 [D816H]; details: at 100 nM
Mast/stem cell growth factor receptor Kit (Homo sapiens), P10721 [D816H], sequence (P10721 whole entry D816H): as the sequence (P10721 whole entry, looked up, stated change not applied, the tested form may be a part) above, with D816H counted along it
Description: Inhibition of human c-KIT A loop exon 17 D816H single mutant at 100 nM using poly (Glu,Tyr) 4:1 as substrate in presence of 33P-gamma-ATP by hotspot kinase assay relative to control

Mus musculus = experiment: Decrease in c-KIT phosphorylation in po dosed NOD-SCID mouse xenografted with human GIST430 cells harboring c-KIT exon 11 primary in-frame V560-L576 deletion mutant and exon 13 heterozygous secondary missense V654A mutant measured after 8 hrs by immunoblotting method; assay type: functional, organism-based
[12] = Cmax in ICR mouse at 10 mg/kg, po administered as single dose measured up to 24 hrs by LC-MS/MS analysis; assay type: ADME, organism-based; parameters: dose 10 mg/kg, route oral; details: in vivo
[13] = target: Mast/stem cell growth factor receptor Kit (Homo sapiens, UniProt P10721, V559D/V654A); experiment: Inhibition of human c-KIT […] V559D/V654A double mutant using poly (Glu,Tyr) 4:1 as substrate in presence of 33P-gamma-ATP by hotspot kinase assay
Mast/stem cell growth factor receptor Kit (Homo sapiens, UniProt P10721, V559D/V654A), sequence (P10721 26-976 V559D/V654A limits assumed): as the sequence (P10721 26-976 V654A limits assumed) above, with V534D counted along it

[14] = target: Mast/stem cell growth factor receptor Kit (Homo sapiens, UniProt P10721, T670I); experiment: Inhibition of human c-KIT ATP binding domain exon 14 T670I single mutant using poly (Glu,Tyr) 4:1 as substrate in presence of 33P-gamma-ATP by hotspot kinase assay
Mast/stem cell growth factor receptor Kit (Homo sapiens, UniProt P10721, T670I), sequence (P10721 26-976 T670I limits assumed): as the sequence (P10721 26-976 V654A limits assumed) above, with A629V, T645I counted along it

[15] = system: Mast/stem cell growth factor receptor Kit (Homo sapiens), P10721 [V560G,N822K]; experiment: Inhibition of human c-KIT A loop exon 11/17 V560G/N822K double mutant at 100 nM using poly (Glu,Tyr) 4:1 as substrate in presence of 33P-gamma-ATP by hotspot kinase assay relative to control
Mast/stem cell growth factor receptor Kit (Homo sapiens), P10721 [V560G,N822K], sequence (P10721 whole entry V560G/N822K): as the sequence (P10721 whole entry, looked up, stated change not applied, the tested form may be a part) above, with V560G, N822K counted along it

[16] = system: Mast/stem cell growth factor receptor Kit (Homo sapiens), P10721 [A829P]; experiment: Inhibition of human c-KIT A loop exon 18 A829P single mutant at 10 nM using poly (Glu,Tyr) 4:1 as substrate in presence of 33P-gamma-ATP by hotspot kinase assay relative to control
Mast/stem cell growth factor receptor Kit (Homo sapiens), P10721 [A829P], sequence (P10721 whole entry A829P): as the sequence (P10721 whole entry, looked up, stated change not applied, the tested form may be a part) above, with A829P counted along it

GIST882 = experiment: Antiproliferative activity against human GIST882 cells harboring c-KIT exon 13 homozygous primary K642E mutant assessed as reduction in cell viability by MTS assay; assay type: functional
[17] = system: Mast/stem cell growth factor receptor Kit (Homo sapiens), P10721 [Y823D]; details: at 100 nM
Description: Inhibition of human c-KIT A loop exon 17 Y823D single mutant at 100 nM using poly (Glu,Tyr) 4:1 as substrate in presence of 33P-gamma-ATP by hotspot kinase assay relative to control

PC-3 = experiment: Antiproliferative activity against human PC3 assessed as reduction in cell viability after 72 hrs by MTS assay; assay type: functional; details: PC-3, 72 h
[18] = system: Mast/stem cell growth factor receptor Kit (Homo sapiens), P10721 [T670I]; experiment: Inhibition of human c-KIT ATP binding domain exon 14 T670I single mutant at 10 nM using poly (Glu,Tyr) 4:1 as substrate in presence of 33P-gamma-ATP by hotspot kinase assay relative to control
[19] = target: Mast/stem cell growth factor receptor Kit (Homo sapiens, UniProt P10721, D816V/V560G); experiment: Inhibition of human c-KIT A loop exon 11/17 V560G/D816V double mutant using poly (Glu,Tyr) 4:1 as substrate in presence of 33P-gamma-ATP by hotspot kinase assay
Mast/stem cell growth factor receptor Kit (Homo sapiens, UniProt P10721, D816V/V560G), sequence (P10721 26-976 V560G/D816V limits assumed): as the sequence (P10721 26-976 V654A limits assumed) above, with V535G, A629V, D791V counted along it

[20] = system: Mast/stem cell growth factor receptor Kit (Homo sapiens), P10721 [V559D,V654A]; experiment: Inhibition of human c-KIT […] V559D/V654A double mutant at 10 nM using poly (Glu,Tyr) 4:1 as substrate in presence of 33P-gamma-ATP by hotspot kinase assay relative to control
Mast/stem cell growth factor receptor Kit (Homo sapiens), P10721 [V559D,V654A], sequence (P10721 whole entry V559D/V654A): as the sequence (P10721 whole entry, looked up, stated change not applied, the tested form may be a part) above, with V559D, V654A counted along it

CCc1cc(NC(=O)Nc2ccc(-c3cnc(Nc4cc(N5CCN(CC)CC5)ncn4)s3)cc2)no1
GI50 (GISTT1): 2.2 nM
GI50 (A549): 14600 nM
inhibition [1]: Active
inhibition [2]: Active
inhibition [3]: 83%
inhibition [4]: 75%
GI50 (GIST430): 1 nM
IC50 [5]: 92 nM
IC50 [6]: 4.14 nM
inhibition [7]: 97%
IC50 [8]: 1.37 nM
IC50 [9]: 0.02 nM
IC50 [10]: 0.81 nM
inhibition [11]: 96%
Activity (Mus musculus): Dose-dependent effect
Cmax [12]: 562 ng/mL
IC50 [13]: 102 nM
IC50 [14]: 1.66 nM
inhibition [15]: 99%
inhibition [16]: 90%
GI50 (GIST882): 3 nM
inhibition [17]: 100%
GI50 (PC-3): > 20000 nM
inhibition [18]: 55%
IC50 [19]: 9.27 nM
inhibition [20]: 10%
